{"source": "ChEMBL document CHEMBL1151339", "about": "“Antitumor agents from bohemic acid complex, III. The isolation of marcellomycin, musettamycin, rudolphomycin, mimimycin, collinemycin, alcindoromycin, and bohemamine” (J Nat Prod, 1980)", "key": {"L1210 [1]": {"system": "L1210", "assay": "Antitumor activity against mouse L1210 cells xenografted in BDF1 mouse at 51.2 mg/kg, ip relative to control", "format": "functional", "settings": "route intraperitoneal"}, "Streptococcus pyogenes": {"system": "Streptococcus pyogenes", "assay": "Antibacterial activity against Streptococcus pyogenes A-9604 by 2-fold tube dilution method", "format": "functional"}, "Candida albicans [2]": {"system": "Candida albicans", "assay": "Antifungal activity against Candida albicans A15049 by 2-fold tube dilution method", "format": "functional"}, "Mus musculus [3]": {"system": "Mus musculus", "assay": "Toxicity in BDF1 mouse xenografted with mouse L1210 cells assessed as survival at 1.6 mg/kg, ip after 5 days", "format": "organism-based", "parameters": "dose 1.6 mg/kg, route intraperitoneal", "settings": "in vivo, 120 h"}, "Serratia marcescens": {"system": "Serratia marcescens", "assay": "Antibacterial activity against Serratia marcescens A20019 by 2-fold tube dilution method", "format": "functional"}, "L1210 [4]": {"system": "L1210", "assay": "Antitumor activity against mouse L1210 cells xenografted in BDF1 mouse assessed as median survival time at 1.6 mg/kg, ip", "format": "functional", "settings": "route intraperitoneal"}, "L1210 [5]": {"system": "L1210", "assay": "Antitumor activity against mouse L1210 cells xenografted in BDF1 mouse assessed as median survival time at 6.4 mg/kg, ip", "format": "functional", "settings": "route intraperitoneal"}, "Streptococcus pneumoniae": {"system": "Streptococcus pneumoniae", "assay": "Antibacterial activity against Streptococcus pneumoniae A-9585 by 2-fold tube dilution method", "format": "functional"}, "L1210 [6]": {"system": "L1210", "assay": "Antitumor activity against mouse L1210 cells xenografted in BDF1 mouse at 12.8 mg/kg, ip relative to control", "format": "functional", "settings": "route intraperitoneal"}, "[7]": {"system": "Trichophyton mentagrophytes", "assay": "Antifungal activity against Trichophyton mentagrophytes A-9870 by 2-fold tube dilution method", "format": "functional"}, "Candida tropicalis": {"system": "Candida tropicalis", "assay": "Antifungal activity against Candida tropicalis A15051 by 2-fold tube dilution method", "format": "functional"}, "L1210 [8]": {"system": "L1210", "assay": "Antitumor activity against mouse L1210 cells xenografted in BDF1 mouse assessed as median survival time at 12.8 mg/kg, ip", "format": "functional", "settings": "route intraperitoneal"}, "Klebsiella pneumoniae": {"system": "Klebsiella pneumoniae", "assay": "Antibacterial activity against Klebsiella pneumoniae A15130 by 2-fold tube dilution method", "format": "functional"}, "Candida albicans [9]": {"system": "Candida albicans", "assay": "Antifungal activity against Candida albicans A-9540 by 2-fold tube dilution method", "format": "functional"}, "L1210 [10]": {"system": "L1210", "assay": "Antitumor activity against mouse L1210 cells xenografted in BDF1 mouse at 6.4 mg/kg, ip relative to control", "format": "functional", "settings": "route intraperitoneal"}, "Escherichia coli [11]": {"system": "Escherichia coli", "assay": "Antibacterial activity against Escherichia coli A15119 by 2-fold tube dilution method", "format": "functional"}, "Candida albicans [12]": {"system": "Candida albicans", "assay": "Antifungal activity against Candida albicans A15050 by 2-fold tube dilution method", "format": "functional"}, "L1210 [13]": {"system": "L1210", "assay": "Antitumor activity against mouse L1210 cells xenografted in BDF1 mouse assessed as change in tumor average weight at 1.6 mg/kg, ip", "format": "functional", "settings": "route intraperitoneal"}, "L1210 [14]": {"system": "L1210", "assay": "Antitumor activity against mouse L1210 cells xenografted in BDF1 mouse assessed as change in tumor average weight at 6.4 mg/kg, ip", "format": "functional", "settings": "route intraperitoneal"}, "Enterococcus faecalis": {"system": "Enterococcus faecalis", "assay": "Antibacterial activity against Streptococcus faecalis A20688 by 2-fold tube dilution method", "format": "functional"}, "Mus musculus [15]": {"system": "Mus musculus", "assay": "Toxicity in BDF1 mouse xenografted with mouse L1210 cells assessed as survival at 3.2 mg/kg, ip after 5 days", "format": "organism-based", "parameters": "dose 3.2 mg/kg, route intraperitoneal", "settings": "in vivo, 120 h"}, "Mus musculus [16]": {"system": "Mus musculus", "assay": "Toxicity in BDF1 mouse xenografted with mouse L1210 cells assessed as survival at 12.8 mg/kg, ip after 5 days", "format": "organism-based", "parameters": "dose 12.8 mg/kg, route intraperitoneal", "settings": "in vivo, 120 h"}, "L1210 [17]": {"system": "L1210", "assay": "Antitumor activity against mouse L1210 cells xenografted in BDF1 mouse assessed as change in tumor average weight at 25.6 mg/kg, ip", "format": "functional", "settings": "route intraperitoneal"}, "L1210 [18]": {"system": "L1210", "assay": "Antitumor activity against mouse L1210 cells xenografted in BDF1 mouse at 25.6 mg/kg, ip relative to control", "format": "functional", "settings": "route intraperitoneal"}, "Enterobacter cloacae": {"system": "Enterobacter cloacae", "assay": "Antibacterial activity against Enterobacter cloacae A-9659 by 2-fold tube dilution method", "format": "functional"}, "L1210 [19]": {"system": "L1210", "assay": "Antitumor activity against mouse L1210 cells xenografted in BDF1 mouse assessed as change in tumor average weight at 12.8 mg/kg, ip", "format": "functional", "settings": "route intraperitoneal"}, "L1210 [20]": {"system": "L1210", "assay": "Antitumor activity against mouse L1210 cells xenografted in BDF1 mouse assessed as change in tumor average weight at 3.2 mg/kg, ip", "format": "functional", "settings": "route intraperitoneal"}, "Staphylococcus aureus": {"system": "Staphylococcus aureus", "assay": "Antibacterial activity against Staphylococcus aureus A-9497 by 2-fold tube dilution method", "format": "functional"}, "Staphylococcus": {"system": "Staphylococcus", "assay": "Antibacterial activity against penicillin resistant Staphylococcus A-9606 by 2-fold tube dilution method", "format": "functional"}, "Escherichia coli [21]": {"system": "Escherichia coli", "assay": "Antibacterial activity against Escherichia coli A20341-1 by 2-fold tube dilution method", "format": "functional"}, "Mus musculus [22]": {"system": "Mus musculus", "assay": "Toxicity in BDF1 mouse xenografted with mouse L1210 cells assessed as survival at 6.4 mg/kg, ip after 5 days", "format": "organism-based", "parameters": "dose 6.4 mg/kg, route intraperitoneal", "settings": "in vivo, 120 h"}, "Microsporum canis": {"system": "Microsporum canis", "assay": "Antifungal activity against Microsporum canis A-9872 by 2-fold tube dilution method", "format": "functional"}, "Pichia kudriavzevii": {"system": "Pichia kudriavzevii", "assay": "Antifungal activity against Candida krusei A15052 by 2-fold tube dilution method", "format": "functional"}, "L1210 [23]": {"system": "L1210", "assay": "Antitumor activity against mouse L1210 cells xenografted in BDF1 mouse assessed as median survival time at 3.2 mg/kg, ip", "format": "functional", "settings": "route intraperitoneal"}, "L1210 [24]": {"system": "L1210", "assay": "Antitumor activity against mouse L1210 cells xenografted in BDF1 mouse at 3.2 mg/kg, ip relative to control", "format": "functional", "settings": "route intraperitoneal"}, "L1210 [25]": {"system": "L1210", "assay": "Antitumor activity against mouse L1210 cells xenografted in BDF1 mouse assessed as median survival time at 51.2 mg/kg, ip", "format": "functional", "settings": "route intraperitoneal"}, "L1210 [26]": {"system": "L1210", "assay": "Antitumor activity against mouse L1210 cells xenografted in BDF1 mouse assessed as median survival time at 25.6 mg/kg, ip", "format": "functional", "settings": "route intraperitoneal"}, "L1210 [27]": {"system": "L1210", "assay": "Antitumor activity against mouse L1210 cells xenografted in BDF1 mouse at 1.6 mg/kg, ip relative to control", "format": "functional", "settings": "route intraperitoneal"}, "L1210 [28]": {"system": "L1210", "assay": "Antitumor activity against mouse L1210 cells xenografted in BDF1 mouse assessed as change in tumor average weight at 51.2 mg/kg, ip", "format": "functional", "settings": "route intraperitoneal"}, "Proteus mirabilis": {"system": "Proteus mirabilis", "assay": "Antibacterial activity against Proteus mirabilis A-9900 by 2-fold tube dilution method", "format": "functional"}, "Proteus vulgaris": {"system": "Proteus vulgaris", "assay": "Antibacterial activity against Proteus vulgaris A21559 by 2-fold tube dilution method", "format": "functional"}, "Pseudomonas aeruginosa": {"system": "Pseudomonas aeruginosa", "assay": "Antibacterial activity against Pseudomonas aeruginosa A-9843A by 2-fold tube dilution method", "format": "functional"}}, "data": [{"smiles": "CC[C@@]1(O)C[C@H](O[C@H]2C[C@H](N(C)C)[C@H](O[C@H]3C[C@H](O)[C@H](O[C@@H]4C[C@H](O)[C@H](O)[C@H](C)O4)[C@H](C)O3)[C@@H](C)O2)c2c(cc3c(c2O)C(=O)c2c(O)ccc(O)c2C3=O)[C@@H]1C(=O)OC", "note": "[MIMIMYCIN]", "values": [{"measurement": "T/C", "setting": "L1210 [1]", "value": 133, "unit": "%"}, {"measurement": "MIC", "setting": "Streptococcus pyogenes", "value": 2, "unit": "µg/mL"}, {"measurement": "MIC", "setting": "Candida albicans [2]", "value": "> 16", "unit": "µg/mL"}, {"measurement": "Activity", "setting": "Mus musculus [3]", "value": "Non-toxic"}, {"measurement": "MIC", "setting": "Serratia marcescens", "value": "> 125", "unit": "µg/mL"}, {"measurement": "Activity", "setting": "L1210 [4]", "value": 7.5, "unit": "days"}, {"measurement": "Activity", "setting": "L1210 [5]", "value": 9, "unit": "days"}, {"measurement": "MIC", "setting": "Streptococcus pneumoniae", "value": 1, "unit": "µg/mL"}, {"measurement": "T/C", "setting": "L1210 [6]", "value": 113, "unit": "%"}, {"measurement": "MIC", "setting": "[7]", "value": "> 16", "unit": "µg/mL"}, {"measurement": "MIC", "setting": "Candida tropicalis", "value": "> 16", "unit": "µg/mL"}, {"measurement": "Activity", "setting": "L1210 [8]", "value": 8.5, "unit": "days"}, {"measurement": "MIC", "setting": "Klebsiella pneumoniae", "value": "> 125", "unit": "µg/mL"}, {"measurement": "MIC", "setting": "Candida albicans [9]", "value": "> 16", "unit": "µg/mL"}, {"measurement": "T/C", "setting": "L1210 [10]", "value": 120, "unit": "%"}, {"measurement": "MIC", "setting": "Escherichia coli [11]", "value": "> 125", "unit": "µg/mL"}, {"measurement": "MIC", "setting": "Candida albicans [12]", "value": "> 16", "unit": "µg/mL"}, {"measurement": "Activity", "setting": "L1210 [13]", "value": 0.5, "unit": "g"}, {"measurement": "Activity", "setting": "L1210 [14]", "value": -1.3, "unit": "g"}, {"measurement": "MIC", "setting": "Enterococcus faecalis", "value": 4, "unit": "µg/mL"}, {"measurement": "Activity", "setting": "Mus musculus [15]", "value": "Non-toxic"}, {"measurement": "Activity", "setting": "Mus musculus [16]", "value": "Non-toxic"}, {"measurement": "Activity", "setting": "L1210 [17]", "value": 0.1, "unit": "g"}, {"measurement": "T/C", "setting": "L1210 [18]", "value": 107, "unit": "%"}, {"measurement": "MIC", "setting": "Enterobacter cloacae", "value": "> 125", "unit": "µg/mL"}, {"measurement": "Activity", "setting": "L1210 [19]", "value": -0.3, "unit": "g"}, {"measurement": "Activity", "setting": "L1210 [20]", "value": 1.3, "unit": "g"}, {"measurement": "MIC", "setting": "Staphylococcus aureus", "value": 8, "unit": "µg/mL"}, {"measurement": "MIC", "setting": "Staphylococcus", "value": 63, "unit": "µg/mL"}, {"measurement": "MIC", "setting": "Escherichia coli [21]", "value": "> 125", "unit": "µg/mL"}, {"measurement": "Activity", "setting": "Mus musculus [22]", "value": "Non-toxic"}, {"measurement": "MIC", "setting": "Microsporum canis", "value": "> 16", "unit": "µg/mL"}, {"measurement": "MIC", "setting": "Pichia kudriavzevii", "value": "> 16", "unit": "µg/mL"}, {"measurement": "Activity", "setting": "L1210 [23]", "value": 8, "unit": "days"}, {"measurement": "T/C", "setting": "L1210 [24]", "value": 107, "unit": "%"}, {"measurement": "Activity", "setting": "L1210 [25]", "value": 10, "unit": "days"}, {"measurement": "Activity", "setting": "L1210 [26]", "value": 8, "unit": "days"}, {"measurement": "T/C", "setting": "L1210 [27]", "value": 100, "unit": "%"}, {"measurement": "Activity", "setting": "L1210 [28]", "value": -3.2, "unit": "g"}, {"measurement": "MIC", "setting": "Proteus mirabilis", "value": "> 125", "unit": "µg/mL"}, {"measurement": "MIC", "setting": "Proteus vulgaris", "value": "> 125", "unit": "µg/mL"}, {"measurement": "MIC", "setting": "Pseudomonas aeruginosa", "value": "> 125", "unit": "µg/mL"}]}]}
